Laboratory results taken from ChEMBL document CHEMBL1201862, “PubChem BioAssay data set” (2004).
Calls of active or inactive are those of the source.

Legend:
[1] = target: T1, Probable nicotinate-nucleotide adenylyltransferase (Staphylococcus aureus (strain N315), UniProt P65502); format: functional, Staphylococcus aureus subsp. aureus N315;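 for IC50 Mean: confirmatory dose-response retesting of NadD inhibitor hits first found in an ultra-high-throughput screen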
[2] = target: T2, fMet-Leu-Phe receptor (Homo sapiens, UniProt P21462); experiment: formyl peptide receptor binders – dose response (AID 519); format: functional
T2 sequence (P21462 whole entry): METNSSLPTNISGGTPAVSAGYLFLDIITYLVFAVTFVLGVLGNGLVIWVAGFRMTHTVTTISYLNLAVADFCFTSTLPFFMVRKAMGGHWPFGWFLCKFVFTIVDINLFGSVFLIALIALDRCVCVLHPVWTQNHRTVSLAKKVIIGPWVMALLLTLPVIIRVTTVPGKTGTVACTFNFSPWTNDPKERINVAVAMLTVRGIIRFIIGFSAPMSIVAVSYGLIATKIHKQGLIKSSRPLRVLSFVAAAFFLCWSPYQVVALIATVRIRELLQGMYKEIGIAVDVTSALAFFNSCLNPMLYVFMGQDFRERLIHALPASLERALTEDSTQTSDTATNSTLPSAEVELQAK

[3] = target: T1, Probable nicotinate-nucleotide adenylyltransferase; format: functional, Staphylococcus aureus subsp. aureus N315; conditions: read-out: IC50_Mean
[4] = viability of uninfected HEp-2 cells – cell-based, HTS, cytotoxicity control for RSV inhibitor project, dose response (AID 2410); format: functional; conditions: human respiratory syncytial virus
[5] = target: Kallikrein-7 (Homo sapiens, UniProt P49862); experiment: Fluorescence Intensity-based biochemical primary high throughput dose response assay to identify activators of kallikrein-7 (K7) zymogen.
[6] = target: Beta-galactosidase (Escherichia coli, UniProt Q8VNN2); experiment: Dose response counterscreen for EBI2 assay utilizing the enzyme, b-galactosidase.; format: functional
[7] = OVCAR-3 cell viability loss – plate reader, dry powder samples, PAX8 inhibitor project, dose response (AID 743044); format: functional, cell-based
[8] = OV-90 cell viability loss – plate reader, dry powder, SA8, PAX8 inhibitor project, dose response (AID 743149); format: functional, cell-based
[9] = COV434 cell viability loss – plate reader, dry powder, SA7, cytotoxicity control for PAX8 inhibitor project, dose response (AID 743145); format: functional, cell-based
[10] = PAX5 cellular inhibition readout – cell-based, plate reader, dry powder samples, selectivity assay for PAX8 inhibitor project, dose response (AID 743047); format: functional;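 note: HEK293 cells carrying a Pax5 driven CD19 promoter luciferase reporter; potency of inhibitors that lower reporter luminescence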
[11] = target: Paired box protein Pax-8 (Homo sapiens, UniProt Q06710); experiment: PAX8 transcriptional activity inhibition in RMG-I – RMG-I cells, luciferase, cherry-pick, dose response (AID 687027); format: functional, cell-based;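 note: luciferase reporter driven by Pax8 target thyroperoxidase promoter measured by SteadyGlo luminescence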
[12] = PAX8-dependent cell viability loss – plate reader, dry powder, dose response (AID 743049); format: functional, cell-based
[13] = inhibitors acting on PAX2 in cells – cell-based, plate reader, dry powder samples, selectivity assay for PAX8 inhibitor project, dose response (AID 743048); format: functional;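 note: HEK293 cells carrying a WT1 promoter luciferase reporter driven by expressed Pax2; potency is for inhibition of Pax2 driven reporter signal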
[14] = system: HEK293; experiment: EBV LMP1 TES2 canonical NF-kB signalling blockers – cell-based, HEK293, luciferase, cherry-pick, dose response (AID 588343); format: functional, Homo sapiens; conditions: Homo sapiens, HEK293
[15] = target: T3, Interleukin-8 (Homo sapiens, UniProt P10145); experiment: Dose Response confirmation of uHTS small molecule hits for cystic fibrosis induced NFkb Inhibitors in a PAF-induced IL8 counterscreen.; format: functional; conditions: read-out: IC50_Mean
T3 sequence (P10145 whole entry): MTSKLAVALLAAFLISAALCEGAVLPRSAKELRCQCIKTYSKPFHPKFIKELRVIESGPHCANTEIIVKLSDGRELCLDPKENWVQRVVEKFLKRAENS

[16] = target: Cytochrome P450 2D6 (Homo sapiens, UniProt P10635);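 note: CYP2D6 member of a cytochrome P450 panel assay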
[17] = target: T3, Interleukin-8; experiment: Dose Response confirmation of uHTS small molecule hits for cystic fibrosis induced NFkb Inhibitors in a TNFa-induced IL8 counterscreen.; format: functional; conditions: read-out: IC50_Mean
[18] = target: T4, Corticotropin-releasing factor receptor 2/Corticotropin-releasing factor-binding protein (Homo sapiens, UniProt P24387+Q13324); experiment: activators of CRF receptor 2 with binding protein – uHTS hits, confirmation (AID 602473); format: functional; conditions: read-out: EC50_Mean
T4 sequence (Q13324 whole entry): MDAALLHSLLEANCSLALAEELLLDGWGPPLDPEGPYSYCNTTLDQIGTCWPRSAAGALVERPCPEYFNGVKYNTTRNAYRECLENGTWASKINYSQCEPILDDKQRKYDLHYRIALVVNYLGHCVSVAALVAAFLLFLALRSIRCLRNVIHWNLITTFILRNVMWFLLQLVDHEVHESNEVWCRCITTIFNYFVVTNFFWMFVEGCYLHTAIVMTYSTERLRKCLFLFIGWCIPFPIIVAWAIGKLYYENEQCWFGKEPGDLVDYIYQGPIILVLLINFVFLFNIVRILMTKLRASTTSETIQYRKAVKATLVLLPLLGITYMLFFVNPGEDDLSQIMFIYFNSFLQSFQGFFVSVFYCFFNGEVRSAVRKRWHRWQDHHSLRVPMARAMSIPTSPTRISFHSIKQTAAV
T4 sequence (P24387 whole entry): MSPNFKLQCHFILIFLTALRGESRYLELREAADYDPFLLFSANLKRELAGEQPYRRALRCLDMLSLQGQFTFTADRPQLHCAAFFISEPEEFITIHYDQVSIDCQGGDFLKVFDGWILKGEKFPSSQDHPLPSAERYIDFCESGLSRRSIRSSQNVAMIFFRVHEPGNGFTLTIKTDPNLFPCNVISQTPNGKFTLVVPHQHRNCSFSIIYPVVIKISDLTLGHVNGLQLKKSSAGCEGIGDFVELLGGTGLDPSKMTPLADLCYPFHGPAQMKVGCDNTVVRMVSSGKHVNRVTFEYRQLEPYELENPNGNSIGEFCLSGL

T1 sequence (P65502 whole entry): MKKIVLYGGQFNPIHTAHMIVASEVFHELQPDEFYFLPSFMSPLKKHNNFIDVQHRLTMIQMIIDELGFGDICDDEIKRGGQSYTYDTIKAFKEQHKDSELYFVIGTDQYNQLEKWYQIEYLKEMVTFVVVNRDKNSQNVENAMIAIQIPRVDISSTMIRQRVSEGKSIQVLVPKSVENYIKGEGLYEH
Chain of Kallikrein-7 (P49862 whole entry): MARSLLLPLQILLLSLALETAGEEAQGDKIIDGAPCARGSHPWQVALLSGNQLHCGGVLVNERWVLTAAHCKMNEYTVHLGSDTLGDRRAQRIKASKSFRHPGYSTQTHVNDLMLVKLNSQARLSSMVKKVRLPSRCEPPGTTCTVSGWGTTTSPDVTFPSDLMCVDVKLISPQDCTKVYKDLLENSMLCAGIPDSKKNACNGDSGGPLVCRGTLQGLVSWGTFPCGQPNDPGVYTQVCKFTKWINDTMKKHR
Chain of Beta-galactosidase (Q8VNN2 whole entry): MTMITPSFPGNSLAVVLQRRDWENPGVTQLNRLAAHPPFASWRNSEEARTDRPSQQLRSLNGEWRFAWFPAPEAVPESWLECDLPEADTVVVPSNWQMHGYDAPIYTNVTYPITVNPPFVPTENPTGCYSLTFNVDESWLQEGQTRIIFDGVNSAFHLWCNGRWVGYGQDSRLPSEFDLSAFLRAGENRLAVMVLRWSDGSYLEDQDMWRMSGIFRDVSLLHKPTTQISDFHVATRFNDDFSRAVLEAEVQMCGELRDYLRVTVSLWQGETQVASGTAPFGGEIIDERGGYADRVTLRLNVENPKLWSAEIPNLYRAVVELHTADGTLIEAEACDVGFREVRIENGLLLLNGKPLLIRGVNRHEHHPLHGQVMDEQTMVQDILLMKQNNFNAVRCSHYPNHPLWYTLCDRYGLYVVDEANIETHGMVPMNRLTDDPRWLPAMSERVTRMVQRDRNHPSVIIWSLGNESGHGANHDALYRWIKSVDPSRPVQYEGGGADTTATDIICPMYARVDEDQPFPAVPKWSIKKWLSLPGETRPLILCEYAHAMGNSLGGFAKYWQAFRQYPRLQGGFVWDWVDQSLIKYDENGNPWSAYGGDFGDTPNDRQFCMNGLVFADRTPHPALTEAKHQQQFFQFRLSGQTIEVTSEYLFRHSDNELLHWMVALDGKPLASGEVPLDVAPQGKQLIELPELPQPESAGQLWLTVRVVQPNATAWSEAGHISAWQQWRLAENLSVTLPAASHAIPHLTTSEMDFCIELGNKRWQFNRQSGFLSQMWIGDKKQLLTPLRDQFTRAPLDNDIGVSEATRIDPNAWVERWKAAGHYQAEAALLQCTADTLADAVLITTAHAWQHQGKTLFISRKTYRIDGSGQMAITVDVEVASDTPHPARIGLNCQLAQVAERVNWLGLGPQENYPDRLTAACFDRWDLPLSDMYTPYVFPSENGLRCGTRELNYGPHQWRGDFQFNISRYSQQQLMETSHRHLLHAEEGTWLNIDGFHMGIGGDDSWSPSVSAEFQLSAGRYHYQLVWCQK
Chain of Paired box protein Pax-8 (Q06710 whole entry): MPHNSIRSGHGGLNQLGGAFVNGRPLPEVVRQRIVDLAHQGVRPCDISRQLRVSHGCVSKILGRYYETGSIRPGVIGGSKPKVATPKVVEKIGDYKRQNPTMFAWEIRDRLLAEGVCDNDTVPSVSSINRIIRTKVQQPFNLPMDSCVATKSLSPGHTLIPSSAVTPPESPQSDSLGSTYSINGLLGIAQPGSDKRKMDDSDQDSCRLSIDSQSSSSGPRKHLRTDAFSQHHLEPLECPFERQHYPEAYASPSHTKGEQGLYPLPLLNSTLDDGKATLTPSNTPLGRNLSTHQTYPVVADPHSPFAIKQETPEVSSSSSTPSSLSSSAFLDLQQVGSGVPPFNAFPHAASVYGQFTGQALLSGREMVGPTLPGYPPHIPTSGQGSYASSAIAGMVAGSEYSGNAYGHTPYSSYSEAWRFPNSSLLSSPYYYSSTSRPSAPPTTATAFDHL
Chain of Cytochrome P450 2D6 (P10635 whole entry): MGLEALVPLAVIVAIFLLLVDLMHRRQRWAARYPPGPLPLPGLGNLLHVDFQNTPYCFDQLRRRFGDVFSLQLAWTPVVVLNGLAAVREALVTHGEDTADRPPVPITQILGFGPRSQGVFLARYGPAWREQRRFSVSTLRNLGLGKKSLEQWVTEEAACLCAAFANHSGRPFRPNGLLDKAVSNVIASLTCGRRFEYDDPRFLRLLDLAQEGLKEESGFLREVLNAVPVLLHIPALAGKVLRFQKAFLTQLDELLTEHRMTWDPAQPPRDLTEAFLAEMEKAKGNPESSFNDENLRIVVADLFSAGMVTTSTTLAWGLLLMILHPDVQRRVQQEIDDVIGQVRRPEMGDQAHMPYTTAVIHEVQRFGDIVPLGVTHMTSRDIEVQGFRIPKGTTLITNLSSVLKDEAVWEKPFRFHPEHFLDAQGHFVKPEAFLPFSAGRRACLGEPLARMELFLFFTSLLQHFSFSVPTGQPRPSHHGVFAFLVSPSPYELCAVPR

With `Cc1cccc(-n2nc3c(c2NC(=O)c2ccco2)CSC3)c1C` the IC50 [1] was 8.29 µM (active), the Ki [2] was 22.9 µM (inactive) and the IC50 [3] was 17.8 µM (active).
With `CCN(CC)c1ccc2c(C)c(CO)c(=O)oc2c1` the CC50 [4] was > 50 µM (active) and the EC50 [5] was 6.34 µM (active).
With `CN=C(S)N1N=C(c2ccc(C)cc2)CC1c1ccc(Cl)cc1` (stereo not given) the IC50 [6] was > 80 µM (inactive).
In the case of `Cc1ccc(S(=O)(=O)Nc2ccc3c(c2)nc(CCN2CCCC2)n3C)cc1`, the AC50 [7] is reported as 34.1 µM (active), the AC50 [8] is reported as 45.2 µM (active) and the AC50 [9] is reported as 26.4 µM (active). The AC50 [10] was > 100 µM (inactive), the AC50 [11] was 5.89 µM (active) and the AC50 [12] was 50.6 µM (active). For the same compound, the AC50 [13] was > 100 µM (inactive).
For `c1cncc(CNc2ncnc3ccc(-c4ccoc4)cc23)c1`, the AC50 [14] was 5.33 µM (active), the IC50 [15] was 6.44 µM (active) and the AC50 [16] was 25.1 µM (inconclusive). For the same compound, the IC50 [17] was > 79 µM (inactive).
For `CN=C(S)N1N=C(c2ccc(C)cc2)CC1c1ccc(Br)cc1` (stereo not given), the IC50 [6] was > 80 µM (inactive).
For `CCN1CCSc2ccc(C(=O)NCc3ccccc3F)cc21`, the EC50 [5] was > 69.5 µM (inactive) and the EC50 [18] was > 53 µM (inactive).
